Assay results: US10683286B2, “Furazan-3-carboxylic acid derivatives and use thereof in treatment of cancer” (FREIE UNIVERSITAET BERLIN, priority 2016, dated 2020)
Entries after “also recorded” stand apart in the source; their conditions may differ. Like-named read-outs stand apart in the source and are kept apart here. One block for each molecule: values may come before it.

Experiments:
[1] = tested on: BaF3/FLT3-ITD cells; experiment: Cell proliferation assay (Alamar blue); format: cell-based, murine; details: for inhibition of cell proliferation: 48 h, Alamar blue, FLT3-ITD cells
Description: Having proven the functional inhibition of STAT5 as a transcription factor, the effect of STAT5 inhibitors on the proliferation of cancer cells carrying the common FLT3-ITD mutation was investigated. Cells were incubated for 48 h and cell proliferation was quantified by the Alamar blue assay (FIG. 5). […] For comparison, we have tested both compounds on non-STAT5-dependent cell lines and the cytotoxicity effect were negligible up to 500 μM. (FIG. S9).
(§1) The effect of compounds on cell lines was evaluated by In Vitro Toxicology Assay Kit, Resazurin based with indicator dye Alamar Blue (Sigma). Adherent and suspension cells were plated at 5×10^3 per well and 1×10^4 per well respectively in triplicate in 96-well plates and incubated in medium containing 10% FBS. For adherent cell, the complete medium was replaced after 24 hours and incubated with test medium containing vehicle control or serial concentration of compounds for 48 hours at 37° C. The remaining wells in the periphery of the microtiter well plate were added PBS and not used to avoid evaporation effects. Alamar Blue was then added, and all plates were incubated at 37° C., and a colorimetric change was measured according to the methods provided by the provided protocol.

[2] = target: T1, STAT3 (Mus musculus, UniProt P42227); experiment: STAT3 phosphorylation and expression in cells; format: cell-based; details: selectivity in cells
T1 construct: endogenous in cells; context BaF3/FLT3-ITD
T1 sequence (P42227 whole entry): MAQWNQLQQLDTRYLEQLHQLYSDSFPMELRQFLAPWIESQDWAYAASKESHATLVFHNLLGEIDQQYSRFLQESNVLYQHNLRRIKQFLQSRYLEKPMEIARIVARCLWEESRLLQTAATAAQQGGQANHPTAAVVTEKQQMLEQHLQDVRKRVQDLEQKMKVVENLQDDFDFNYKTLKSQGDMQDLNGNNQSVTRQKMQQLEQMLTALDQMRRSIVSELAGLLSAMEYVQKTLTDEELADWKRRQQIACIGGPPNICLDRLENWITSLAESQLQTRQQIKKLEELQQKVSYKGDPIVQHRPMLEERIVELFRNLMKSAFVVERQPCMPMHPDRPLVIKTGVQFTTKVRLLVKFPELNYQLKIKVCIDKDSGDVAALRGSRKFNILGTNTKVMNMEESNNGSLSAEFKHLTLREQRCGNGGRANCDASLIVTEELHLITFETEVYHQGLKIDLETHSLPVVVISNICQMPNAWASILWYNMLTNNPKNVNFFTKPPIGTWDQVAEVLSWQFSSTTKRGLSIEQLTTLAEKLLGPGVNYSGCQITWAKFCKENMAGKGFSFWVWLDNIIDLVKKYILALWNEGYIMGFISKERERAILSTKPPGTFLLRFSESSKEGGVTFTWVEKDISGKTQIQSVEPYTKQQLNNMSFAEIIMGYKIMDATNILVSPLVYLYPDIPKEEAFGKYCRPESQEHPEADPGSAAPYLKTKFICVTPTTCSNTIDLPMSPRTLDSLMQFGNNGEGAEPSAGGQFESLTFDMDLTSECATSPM
Description: (§2) Cells were seeded at 0.5×10^6 in 6 well plate and allowed to grow overnight followed by 6 hour incubation with test compounds (0.1% DMSO) before protein extraction with M-PER™ Mammalian Protein Extraction Reagent (Pierce) containing 1% (vol/vol) complete protease inhibitor cocktail (Roche Molecular Biochemicals) and 1% (vol/vol) phosphate inhibitor cocktail (Sigma). For Western blotting, 15 μg of protein from each sample were then separated on a 10% SDS-PAGE and transferred to a PVDF membrane. The blots were blocked with TBST buffer (20 mM Tris-HCl [pH 7.4], 140 mM sodium chloride, and 0.05% Tween 20) containing 5% BSA at room temperature for 1 hour, washed 3 times in TBST buffer, and incubated with primary antibody overnight at 4° C. The membranes were then incubated with HRP-conjugated secondary antibody at room temperature for 1 hour. The reaction products were detected using Syngene Pxi4 imager and quantified by Image J.

[3] = tested on: Pim1 kinase, cyclin D1 and Bcl-xl; experiment: Expression of transcriptional targets of STAT5, Western blot in BaF3/FLT3-ITD cells; format: cell-based, murine; details: BaF3/FLT-ITD cells, after 6 h
Source text: (FIGS. 7A, B). Next, the functional effects of STAT5 inhibitors (6) and (15) on cellular transcription were investigated. For the purpose, the expression of three transcriptional targets of STAT5, namely Pim1 kinase, cyclin D1 and Bcl-xl, which play essential roles in cell cycle progression and survival, was monitored by Western Blotting (FIGS. 6A, B).

[4] = tested on: non-STAT5-dependent cell lines; experiment: Cytotoxicity on non-STAT5-dependent cell lines; format: cell-based; details: up to 500 μM
Description: Carol Stocking (University Hospital Hamburg-Eppendorf). […] Cells were incubated at 37° C., 5% CO2 atmosphere.
as §1

[5] = tested on: STAT5; experiment: STAT5 phosphorylation, Western blot in BaF3/FLT3-ITD cells; details: for tyrosine phosphorylation of STAT5, dose dependence: 6 h treatment; for tyrosine phosphorylation of STAT5, dose dependence / overall expression of endogenous STAT5 / reduction of STAT5 phosphorylation: BaF3/FLT3-ITD; for IC50: read-out: IC50 of STAT5 phosphorylation inhibition, BaF3/FLT3-ITD cells; for IC50 / reduction of STAT5 phosphorylation: 6 h
Description: At first, the ligand-mediated inhibition of STAT5 phosphorylation at conserved tyrosine residues (Tyr694 and Tyr699) was investigated, which is initiated by the binding of the SH2 domain to phosphorylated cell surface receptors. […] After 6 h cells were harvested to determine the level of STAT5 phosphorylation using phosphotyrosine-specific antibodies (FIGS. 4A-B).
as §2

[6] = target: T2, STAT5b-SH2 domain (Homo sapiens, UniProt P51692); experiment: Competitive fluorescence polarization (FP) assay, STAT5b-SH2 domain
T2 sequence (P51692 136-703): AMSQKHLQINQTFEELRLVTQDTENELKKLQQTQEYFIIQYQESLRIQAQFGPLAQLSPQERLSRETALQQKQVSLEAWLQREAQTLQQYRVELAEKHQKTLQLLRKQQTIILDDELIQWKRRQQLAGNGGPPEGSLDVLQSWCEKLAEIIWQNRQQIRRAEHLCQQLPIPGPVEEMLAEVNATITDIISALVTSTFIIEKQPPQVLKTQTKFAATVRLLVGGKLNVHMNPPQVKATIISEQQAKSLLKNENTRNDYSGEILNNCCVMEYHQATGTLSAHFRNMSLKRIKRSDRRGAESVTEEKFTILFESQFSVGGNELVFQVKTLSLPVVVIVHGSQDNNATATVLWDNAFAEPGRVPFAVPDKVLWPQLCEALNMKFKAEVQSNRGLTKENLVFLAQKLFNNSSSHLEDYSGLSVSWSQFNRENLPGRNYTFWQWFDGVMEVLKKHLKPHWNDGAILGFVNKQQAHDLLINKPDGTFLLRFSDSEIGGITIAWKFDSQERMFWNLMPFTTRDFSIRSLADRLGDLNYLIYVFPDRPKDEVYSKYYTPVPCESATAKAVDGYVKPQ
Description: The ChemBioNet fragment collection composed in accordance with the substructure composition of the World Drug Index (WDI) was screened both for enhancing and inhibiting fragments of the phosphopeptide-STAT5 interaction.
The clone for Stat5b expression was kindly provided by Thorsten Berg (MPI, Martinsried). Expression of that truncated version of Stat5b (aa 136-703) cloned into a modified pQE70, with N-terminal MBP-tag and C-terminal His-tag was conducted on autoinduction medium (overnight express/Novagen). Cells were grown to an optical density (O.D.) of 0.3 at 37° C., then the temperature was reduced to 20° C. for further 48 h of expression. […] The protein was purified by Ni-chelating chromatography followed by gel filtration (Superdex 200/10 mM HEPES pH 7.8, 100 mM NaCl, 1 mM EDTA, 1 mM DTT, 10% glycerol). A yield of 15 mg MBP-Stat5b-His per liter of culture was obtained and aliquots (200 μl of 3.2 mg/ml) were quick-frozen and stored at −80° C., ready for use.
17000 compounds from the (FMP) ChemBioNet library were tested in a competitive-based fluorescence polarization (FP) assay to investigate the ability of compounds to bind to STAT5b-SH2 domain by displacing respective fluorophore-labeled peptides (5-carboxyfluorescein-GY (PO3H2) LSLPPW-NH2). The peptide purity was >95% and the screening were performed at room temperature. The final concentration of buffer components used was 10 mM HEPES (pH 7.5), 1 mM EDTA, 0.1% Igepal CA-630, 50 mM NaCl, and 5% DMSO. The final concentration of protein used was at 65 nM which correspond to the dissociation constants (Kd) for the individual protein-peptide interactions in assay buffer. The protein was first added to the black 384 well plate (Corning 3676) followed by test compounds and fluorophore-labeled peptide. The plates were centrifuged, and measured using Safire^2 well plate reader (Tecan, Crailsheim, Germany) after 15 minutes incubation at room temperature. […] For the analysis of the data GraphPad Prism 5 was used. Ligand efficiencies (LE) were calculated using equation derived as followed. LE=−ΔG°/HA with (ΔG°) is the standard free energy of binding in KJ and HA is the number of non-hydrogen atoms.

[7] = target: full length human STAT3 protein (Homo sapiens, UniProt P40763); experiment: FP specificity assay, STAT3; format: binding; details: concentrations up to 1 mM
full length human STAT3 protein, sequence (P40763 whole entry): as the sequence (P42227 whole entry) above, with D760E counted along it
Source text: Cell Lines and Culture Condition

[8] = target: T3, protein tyrosine phosphatase SHP2 (Homo sapiens, UniProt Q06124); experiment: SHP2 inhibition (specificity); format: biochemical; details: concentrations up to 1 mM
T3 sequence (Q06124 1-593): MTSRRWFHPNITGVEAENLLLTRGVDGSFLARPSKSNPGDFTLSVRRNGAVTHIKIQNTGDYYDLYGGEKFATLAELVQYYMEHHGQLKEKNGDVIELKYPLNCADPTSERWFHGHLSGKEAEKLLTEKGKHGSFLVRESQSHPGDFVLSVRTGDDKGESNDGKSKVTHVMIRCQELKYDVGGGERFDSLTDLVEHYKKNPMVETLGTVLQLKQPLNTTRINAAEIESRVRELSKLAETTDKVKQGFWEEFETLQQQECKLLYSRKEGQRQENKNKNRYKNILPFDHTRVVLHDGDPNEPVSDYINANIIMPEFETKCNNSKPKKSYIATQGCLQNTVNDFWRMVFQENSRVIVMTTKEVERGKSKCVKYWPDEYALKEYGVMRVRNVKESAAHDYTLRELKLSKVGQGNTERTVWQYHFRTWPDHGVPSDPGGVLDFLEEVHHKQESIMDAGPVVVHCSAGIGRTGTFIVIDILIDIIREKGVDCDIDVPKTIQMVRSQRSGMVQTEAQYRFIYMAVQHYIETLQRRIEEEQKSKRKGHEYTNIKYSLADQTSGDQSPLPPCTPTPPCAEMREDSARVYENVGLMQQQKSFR

[9] = tested on: phosphorylated STAT5 dimers; experiment: ELISA-based STAT5 transcription factor assay of (STAT5)2-DNA complexes; format: biochemical, murine; details: cell-free, nuclear extract incubated 1 h at room temperature
Description: As an additional confirmation for the mode of action of the STAT5-binding fragments, we finally investigated their potential to interfere directly with the binding of phosphorylated STAT5 dimers to the target DNA sequences of the transcription factor. […] (FIGS. 6C, D) Nuclear extracts and cytoplasmic extracts were prepared from BaF3 FLT3-ITD cells using the Nuclear Extraction kit (Active Motif, Carlsbad, Calif., USA) according to the manufacturer's protocol. STAT5 activity was determined in nuclear protein extracts (20 μg) by the TransAM STATs family kits from Active Motif (Carlsbad, Calif.). All assays were performed following the manufactory instruction after the nuclear protein extraction.

[10] = tested on: STAT5 dimer; experiment: Gel shift assay (EMSA) of STAT5 DNA binding; format: biochemical, murine; details: BaF3/FLT3-ITD nuclear extract
Description: Nuclear extracts and cytoplasmic extracts were prepared from BaF3 FLT3-ITD cells using the Nuclear Extraction kit (Active Motif, Carlsbad, Calif., USA) according to the manufacturer's protocol.
A gel shift assay was conducted using a double-stranded, biotin-labeled oligonucleotide probe containing the consensus binding site for STAT5 (sense strand, 5′-[…]-3′), using the Gelshift Chemiluminescent EMSA kit (Active Motif) according to the manufacturer's protocol. Protein-DNA complexes were resolved on a nondenaturing polyacrylamide gel, transferred to a positively charged nylon membrane, and cross-linked to a membrane using the UV-light cross-linker. After blocking, the membrane was incubated with blocking buffer containing streptavidin conjugated to HRP. After washing, protein-DNA complexes were detected using a chemi-luminescent substrate (Active Motif).

[11] = Solubility; format: physicochemical; details: compared to the 5-aryl-substituted tetrazole

Compound: COc1ccc(Cc2nnnn2CNc2nonc2C(=O)O)cc1 [Compound 177]
cellular activity (cell proliferation curves, FIG. 8) [1]: significant cellular activity

Compound: O=C(O)c1nonc1NCn1nnnc1CCOc1ccccc1 [Compound 104]
cellular activity (cell proliferation curves, FIG. 8) [1]: significant cellular activity

Compound: O=C(O)c1nonc1NCn1nnnc1Cc1cccc(Cl)c1 [Compound 173]
cellular activity (cell proliferation curves, FIG. 8) [1]: significant cellular activity

Compound: O=C(O)c1nonc1NCn1nnnc1COCc1ccccc1 [Compound 108]
cellular activity (cell proliferation curves, FIG. 8) [1]: significant cellular activity

Compound: O=C(O)c1nonc1NCn1nnnc1COc1ccccc1 [Compound 100]
cellular activity (cell proliferation curves, FIG. 8) [1]: significant cellular activity

Compound: CC(=O)OC(C)OC(=O)c1nonc1NCn1cnnn1 (stereo not drawn) [Compound 15]
STAT3 phosphorylation [2]: negligible effects
endogenous STAT3 expression [2]: negligible effects
Pim1, cyclin D1 and Bcl-xL expression [3]: dose dependent reduction
inhibition of cell proliferation [1]: clear dose-dependent inhibition
cytotoxicity effect [4]: negligible
tyrosine phosphorylation of STAT5, dose dependence [5]: decrease the tyrosine phosphorylation of STAT5 in a dose dependent manner
overall expression of endogenous STAT5 [5]: no effect
IC50 [5]: 68.9 µM
Kd [6]: 14 µM
Ki [6]: 4.6 ± 1.7 µM
LE ([6]; Table 1, ligand efficiency): 1.45 kJ/mol* atom#

binding to the SH2 domain of STAT3 [7]: no binding
inhibition of SHP2 [8]: No inhibition
STAT5 dimer DNA-binding activity [10]: inhibits
Ki [6]: 1.4 ± 0.5 µM
ligand efficiency [6]: 2.23 kJ/mol per non-hydrogen atom
LE ([6]; Table 1, ligand efficiency): 2.23 kJ/mol* atom#
Compound: O=C(O)c1nonc1NCn1cnnn1 [Compound 3, 4-((1H-Tetrazol-1-yl)-methylamino)-furazan-3-carboxylic Acid]
inhibition of protein-dimer-DNA complex formation [9]: more potent inhibitor than compounds (15) and (6)

Compound: O=C(O)c1nonc1NCn1nnnc1CCCc1ccccc1 [Compound 196]
cellular activity (cell proliferation curves, FIG. 8) [1]: significant cellular activity

Compound: O=C(O)c1nonc1NCn1nnnc1Cc1cccc(F)c1 [Compound 178]
cellular activity (cell proliferation curves, FIG. 8) [1]: significant cellular activity

STAT3 phosphorylation [2]: negligible effects
endogenous STAT3 expression [2]: negligible effects
IC50 [5]: 44.2 µM
Kd [6]: 76 µM
Ki [6]: 37.4 ± 1.2 µM
LE ([6]; Table 1, ligand efficiency): 1.58 kJ/mol* atom#
Compound: COC(=O)c1nonc1NCn1cnnn1 [Compound 6, Methyl 4-((1H-tetrazol-1-yl)-methylamino)-furazan-3-carboxylate]
Pim1, cyclin D1 and Bcl-xL expression [3]: dose dependent reduction
inhibition of cell proliferation [1]: clear dose-dependent inhibition
cytotoxicity effect [4]: negligible
reduction of STAT5 phosphorylation ([5]; 25 μM): clear reduction
tyrosine phosphorylation of STAT5, dose dependence [5]: decrease the tyrosine phosphorylation of STAT5 in a dose dependent manner
overall expression of endogenous STAT5 [5]: no effect

Compound: Cc1ccc(Cc2nnnn2CNc2nonc2C(=O)O)cc1 [Compound 174]
cellular activity (cell proliferation curves, FIG. 8) [1]: significant cellular activity

Compound: O=C(O)c1nonc1NCn1nnnc1CCc1ccccc1 [Compound 169]
cellular activity (cell proliferation curves, FIG. 8) [1]: significant cellular activity

Compound: O=C(O)c1nonc1NCn1nnnc1COCCc1ccccc1 [Compound 113]
cellular activity (cell proliferation curves, FIG. 8) [1]: significant cellular activity

Compound: O=C(O)c1nonc1NCn1nnnc1Cc1ccccc1 [Compound 30, 4-((5-Benzyl-1H-tetrazol-1-yl)-methylamino)-furazan-3-carboxylic Acid]
solubility [11]: strongly improved solubility
reduction of STAT5 phosphorylation ([5]; 50 μM): clear reduction; also recorded: reduces STAT5 phosphorylation significantly
IC50 [5]: 30.8 µM
Ki [6]: 8.6 ± 2 µM
LE [6]: 1.31
